How the values were obtained:
Assay in all cases: relative viability (nuclei count vs DMSO), 5 days (fraction); higher = more cells survive
NCI-H3122 = tested on: NCI-H3122
Method in brief: (§1)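 Relative viability was taken as the ratio of nuclei in treated wells to nuclei in vehicle wells. Lung cancer cell lines in 1536-well plates received compounds by pin tool one day after seeding, either one drug alone or a fixed anchor-drug dose plus five library-drug doses (not always all listed) in √10 steps. Nuclei were counted on 4× images after 5 days of treatment, and values are medians of duplicate plates.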

NCI-H358 = tested on: NCI-H358
Method in brief: as §1

EPLC-272H = tested on: EPLC-272H
Method in brief: as §1

NCI-H1975 = tested on: NCI-H1975
Method in brief: as §1

NCI-H441 = tested on: NCI-H441
Method in brief: as §1

NCI-H1755 = tested on: NCI-H1755
Method in brief: as §1

NCI-H2085 = tested on: NCI-H2085
Method in brief: as §1

NCI-H2126 = tested on: NCI-H2126
Method in brief: as §1

HOP-62 = tested on: HOP-62
Method in brief: as §1

ABC-1 = tested on: ABC-1
Method in brief: as §1

HCC-78 = tested on: HCC-78
Method in brief: as §1

NCI-H1993 = tested on: NCI-H1993
Method in brief: as §1

NCI-H2023 = tested on: NCI-H2023
Method in brief: as §1

HCC-15 = tested on: HCC-15
Method in brief: as §1

NCI-H1915 = tested on: NCI-H1915
Method in brief: as §1

COR-L 105 = tested on: COR-L 105
Method in brief: as §1

UMC-11 = tested on: UMC-11
Method in brief: as §1

LXF-289 = tested on: LXF-289
Method in brief: as §1

NCI-H322M = tested on: NCI-H322M
Method in brief: as §1

NCI-H1666 = tested on: NCI-H1666
Method in brief: as §1

EMC-BAC-2 = tested on: EMC-BAC-2
Method in brief: as §1

CAL-12T = tested on: CAL-12T
Method in brief: as §1

`Clc1ccc(Nc2nnc(Cc3ccncc3)c3ccccc23)cc1` [Vatalanib] + Cc1nc(NC(=O)N2CCC[C@H]2C(N)=O)sc1-c1ccnc(C(C)(C)C(F)(F)F)c1 [Alpelisib] (partner 2 µM) was tested, and the relative viability (NCI-H3122; first compound 0.04 µM) was 0.779, the relative viability (NCI-H3122; first compound 0.1265 µM) was 0.742 and the relative viability (NCI-H3122; first compound 0.4 µM) was 0.799. It also gave a relative viability (NCI-H3122; first compound 1.265 µM) of 0.93, a relative viability (NCI-H3122; first compound 4 µM) of 0.906 and a relative viability (NCI-H358; first compound 0.04 µM) of 0.88. For the same molecule, the relative viability (NCI-H358; first compound 0.1265 µM) was 0.741, the relative viability (NCI-H358; first compound 0.4 µM) was 1.09 and the relative viability (NCI-H358; first compound 1.265 µM) was 0.824. It also gave a relative viability (NCI-H358; first compound 4 µM) of 0.876, a relative viability (EPLC-272H; first compound 0.04 µM) of 0.824 and a relative viability (EPLC-272H; first compound 0.1265 µM) of 0.963. For the same molecule, the relative viability (EPLC-272H; first compound 0.4 µM) was 1.08, the relative viability (EPLC-272H; first compound 1.265 µM) was 1.05 and the relative viability (EPLC-272H; first compound 4 µM) was 1.06. It also gave a relative viability (NCI-H1975; first compound 0.04 µM) of 0.618, a relative viability (NCI-H1975; first compound 0.1265 µM) of 0.62 and a relative viability (NCI-H1975; first compound 0.4 µM) of 0.627. For the same molecule, the relative viability (NCI-H1975; first compound 1.265 µM) was 0.553, the relative viability (NCI-H1975; first compound 4 µM) was 0.519 and the relative viability (NCI-H441; first compound 0.04 µM) was 0.808. The relative viability (NCI-H441; first compound 0.1265 µM) was 0.627, the relative viability (NCI-H441; first compound 0.4 µM) was 0.733 and the relative viability (NCI-H441; first compound 1.265 µM) was 0.836. The relative viability (NCI-H441; first compound 4 µM) was 0.859, the relative viability (NCI-H1755; first compound 0.04 µM) was 0.946 and the relative viability (NCI-H1755; first compound 0.1265 µM) was 0.895. The relative viability (NCI-H1755; first compound 0.4 µM) was 0.977, the relative viability (NCI-H1755; first compound 1.265 µM) was 0.857 and the relative viability (NCI-H1755; first compound 4 µM) was 0.906. The relative viability (NCI-H2085; first compound 0.04 µM) was 0.923, the relative viability (NCI-H2085; first compound 0.1265 µM) was 0.94 and the relative viability (NCI-H2085; first compound 0.4 µM) was 1.04. For the same molecule, the relative viability (NCI-H2085; first compound 1.265 µM) was 0.97, the relative viability (NCI-H2085; first compound 4 µM) was 0.893 and the relative viability (NCI-H2126; first compound 0.04 µM) was 0.714. For the same molecule, the relative viability (NCI-H2126; first compound 0.1265 µM) was 0.75, the relative viability (NCI-H2126; first compound 0.4 µM) was 0.761 and the relative viability (NCI-H2126; first compound 1.265 µM) was 0.725. The relative viability (NCI-H2126; first compound 4 µM) was 0.742, the relative viability (HOP-62; first compound 0.04 µM) was 0.981 and the relative viability (HOP-62; first compound 0.4 µM) was 1.07. The relative viability (HOP-62; first compound 1.265 µM) was 1.12, the relative viability (HOP-62; first compound 4 µM) was 0.855 and the relative viability (ABC-1; first compound 0.04 µM) was 1. For the same molecule, the relative viability (ABC-1; first compound 0.1265 µM) was 0.936, the relative viability (ABC-1; first compound 0.4 µM) was 1.2 and the relative viability (ABC-1; first compound 1.265 µM) was 0.853. For the same molecule, the relative viability (ABC-1; first compound 4 µM) was 0.926, the relative viability (HCC-78; first compound 0.04 µM) was 0.255 and the relative viability (HCC-78; first compound 0.1265 µM) was 0.346. It also gave a relative viability (HCC-78; first compound 0.4 µM) of 0.277, a relative viability (HCC-78; first compound 4 µM) of 0.323 and a relative viability (NCI-H1993; first compound 0.04 µM) of 0.581. The relative viability (NCI-H1993; first compound 0.1265 µM) was 0.68, the relative viability (NCI-H1993; first compound 0.4 µM) was 0.678 and the relative viability (NCI-H1993; first compound 1.265 µM) was 0.634. The relative viability (NCI-H1993; first compound 4 µM) was 0.707, the relative viability (NCI-H2023; first compound 0.04 µM) was 0.611 and the relative viability (NCI-H2023; first compound 0.1265 µM) was 0.537. It also gave a relative viability (NCI-H2023; first compound 0.4 µM) of 0.657, a relative viability (NCI-H2023; first compound 1.265 µM) of 0.492 and a relative viability (NCI-H2023; first compound 4 µM) of 0.561. It also gave a relative viability (HCC-15; first compound 0.04 µM) of 0.893, a relative viability (HCC-15; first compound 0.1265 µM) of 0.884 and a relative viability (HCC-15; first compound 0.4 µM) of 0.918. It also gave a relative viability (HCC-15; first compound 1.265 µM) of 0.916, a relative viability (HCC-15; first compound 4 µM) of 0.937 and a relative viability (NCI-H1915; first compound 0.04 µM) of 1.03. The relative viability (NCI-H1915; first compound 0.1265 µM) was 1.05, the relative viability (NCI-H1915; first compound 0.4 µM) was 1.06 and the relative viability (NCI-H1915; first compound 1.265 µM) was 1.04. For the same molecule, the relative viability (NCI-H1915; first compound 4 µM) was 1.1, the relative viability (COR-L 105; first compound 0.04 µM) was 0.994 and the relative viability (COR-L 105; first compound 0.1265 µM) was 0.994. For the same molecule, the relative viability (COR-L 105; first compound 0.4 µM) was 1.15, the relative viability (COR-L 105; first compound 1.265 µM) was 1.12 and the relative viability (COR-L 105; first compound 4 µM) was 1.04. It also gave a relative viability (UMC-11; first compound 0.04 µM) of 0.913, a relative viability (UMC-11; first compound 0.1265 µM) of 0.932 and a relative viability (UMC-11; first compound 0.4 µM) of 0.816. It also gave a relative viability (UMC-11; first compound 1.265 µM) of 0.979, a relative viability (UMC-11; first compound 4 µM) of 1.07 and a relative viability (LXF-289; first compound 0.04 µM) of 1.08. It also gave a relative viability (LXF-289; first compound 0.1265 µM) of 1.01, a relative viability (LXF-289; first compound 0.4 µM) of 1.06 and a relative viability (LXF-289; first compound 1.265 µM) of 0.964. It also gave a relative viability (LXF-289; first compound 4 µM) of 0.995, a relative viability (NCI-H322M; first compound 0.04 µM) of 0.775 and a relative viability (NCI-H322M; first compound 0.1265 µM) of 0.709. For the same molecule, the relative viability (NCI-H322M; first compound 0.4 µM) was 0.75, the relative viability (NCI-H322M; first compound 1.265 µM) was 0.782 and the relative viability (NCI-H322M; first compound 4 µM) was 0.795. The relative viability (NCI-H1666; first compound 0.04 µM) was 1.23, the relative viability (NCI-H1666; first compound 0.1265 µM) was 0.934 and the relative viability (NCI-H1666; first compound 0.4 µM) was 0.978. For the same molecule, the relative viability (NCI-H1666; first compound 1.265 µM) was 0.996, the relative viability (NCI-H1666; first compound 4 µM) was 0.941 and the relative viability (EMC-BAC-2; first compound 0.04 µM) was 0.714. For the same molecule, the relative viability (EMC-BAC-2; first compound 0.1265 µM) was 0.714, the relative viability (EMC-BAC-2; first compound 0.4 µM) was 0.72 and the relative viability (EMC-BAC-2; first compound 1.265 µM) was 0.74. It also gave a relative viability (EMC-BAC-2; first compound 4 µM) of 0.729, a relative viability (CAL-12T; first compound 0.04 µM) of 1.05 and a relative viability (CAL-12T; first compound 0.1265 µM) of 1.26. It also gave a relative viability (CAL-12T; first compound 0.4 µM) of 1.44, a relative viability (CAL-12T; first compound 1.265 µM) of 0.987 and a relative viability (CAL-12T; first compound 4 µM) of 1.22.
